The source of these data is patent publication US10869926B2, “Suppression of myeloid derived suppressor cells and immune checkpoint blockade” (The Johns Hopkins University, priority 2014, dated 2020).

One data set has as its system 4T1 cells. In words: In vitro survival assay (WST-1). The class given is cell-based, murine. The note with it: 24 hours, 0 to 50 μM. Here is the method:
4T1 (CRL-2539, murine breast tumor cells) and CT26 (CRL-2638, murine colorectal adenocarcinoma) were purchased from ATCC. Both tumor cell lines were grown in McCoy's 5A supplemented with 10% Fetal Bovine Serum at 37° C., 5% CO2.
MDSCs and CD8^+ T cells were plated on 96-well plate at 2×10^6 cells/ml in RPMI1640 medium supplemented with 10% FBS. CD8^+ T cell cultures were supplemented with recombinant interleukin-2 (Invitrogen Life Technologies) at 2000 U/ml. 4T1 cells in McCoy 5A supplemented with 10% FBS were plated on 96-well plate and cultured until they reached >70% confluency. Cells were cultured with entinostat, 5-azacytidine, or J32 at concentrations ranging from 0 μM to 50 μM for 24 hours at 37° C., 5% CO2. The proportion of viable cells was assessed by incubating the cells with 10% (v/v) Cell Proliferation Reagent WST-1 (Roche Applied Science) for 3 hours at 37° C. and measuring OD450 absorbance of the resulting formazan products.

Data set [1] concerns G-MDSCs. In words: In vitro survival assay (WST-1). In kind it is cell-based, mouse. The note with it: 24 hours, 0 to 50 μM. On the technique in general: Tetrazolium assays rely on reduction of a dye to a coloured formazan, in cell work by metabolically active cells.
Excerpt: MDSCs from 4T1 tumor-bearing animals were isolated from spleens using Myeloid-Derived Suppressor Cell Isolation Kit, mouse (Miltenyi Biotec) and BD FACS Aria III cell sorter (BD Biosciences). CD8^+ cells were isolated from spleens of 4T1-bearing animals treated with anti-PD-1 and anti-CTLA-4 antibodies using CD8a^+ T Cell Isolation Kit II, mouse (Miltenyi Biotec) and BD FACS Aria III cell sorter (BD Biosciences). MDSC, Tregs, and CD8^+ T cells were isolated and cultured by following the manufacturer's protocols and published protocols (38, 39). The purity of G-MDSCs (CD11b^+Ly6G^+Ly6C^loF4/80^−MHC-II^−) and CD8^+ (CD3^+CD8^+) populations were greater than 95% as determined by flow cytometry, and the viability was greater than 95% for these populations as determined by trypan blue staining.
MDSCs and CD8^+ T cells were plated on 96-well plate at 2×10^6 cells/ml in RPMI1640 medium supplemented with 10% FBS. CD8^+ T cell cultures were supplemented with recombinant interleukin-2 (Invitrogen Life Technologies) at 2000 U/ml. […] The proportion of viable cells was assessed by incubating the cells with 10% (v/v) Cell Proliferation Reagent WST-1 (Roche Applied Science) for 3 hours at 37° C. and measuring OD450 absorbance of the resulting formazan products.
Data set [2] relates to MHC-I, B2M and TAP1 genes in CT26 cells. In words: RT-PCR of genes involved in MHC-I presentation. The class given is cell-based, murine. The note with it: CT26 cells cultured in vitro. Here is the method: (§1) 5×10^6 CT26 or 4T1 cells were resuspended in 0.75 ml Trizol LS Reagent (Invitrogen Life Technologies) and 0.25 ml chloroform (Sigma-Aldrich). Samples were vortexed for 15 seconds and incubated for 10 minutes at 20° C. […] Samples were centrifuged at 12000 g for 10 minutes at 4° C. after 10 minute incubation at 20° C. The resulting pellets were air dried for less than 10 minutes and were resuspended with RNAse-free water (Invitrogen Life Technologies) for a final concentration of 500 ng/μl. PCR was performed using SuperScript III One-Step RT-PCR System with Platinum Taq DNA Polymerase (Invitrogen Life Technologies). Annealing temperature was set at 55° C. for H-2D(d), β2m and TAP1, and set at 60° C. for β-actin. […] The following […] used for RT-PCR: H-2D(d) Forward [NT] (SEQ ID NO: 1), H-2D(d) Reverse [NT] ID NO: 2), β2m Forward [NT] ID NO: 3), β2m Reverse [NT] ID NO: 4), TAP1 Forward [NT] ID NO: 5), TAP1 Reverse [NT] ID NO: 6), β-actin Forward [NT] ID NO: 7), β-actin Reverse [NT] ID NO: 8).

Data set [3] concerns MHC-I, B2M and TAP1 genes in 4T1 cells. In words: RT-PCR of genes involved in MHC-I presentation. In kind it is cell-based, murine. The note with it: 4T1 cells cultured in vitro. Here is the method:
as §1

The test system of the next data set is 4T1 tumors. In words: 4T1 primary tumors and metastatic lesions (metastasis analysis). In kind it is in vivo, BALB/c mice. The note with it: for metastases (in words) / primary tumors (in words): 4T1, sacrificed six weeks after tumor implantation; for Liver Mets / Lung Mets / Primary Tumor Vol (mm^3) / Spleen Mets: six weeks after tumor implantation. As to the method:
Tumor volume was calculated as length×width×0.5.
On day 46 post-tumor implantations, 4T1 tumor bearing mice were euthanized according to the IACUC guidelines. Lungs, livers and spleens were harvested and fixed in 10% Neutral Buffered Formalin Solution (Sigma-Aldrich) and metastatic nodules were counted from at least three mice per group.

Data set [4] relates to IFN-γ secretion in co-cultures of G-MDSCs and CD8+ T cells. In words: IFN-γ assay in G-MDSC / CD8+ T cell co-cultures (ELISA). The class given is cell-based, mouse. The note with it: G-MDSC to CD8+ T cell ratio 1:1, 24 hours, 0 to 0.25 μM. As to the method: Freshly isolated MDSCs and CD8^+ T cells from 4T1 tumor-bearing animals were cultured at MDSC to CD8^+ T cell ratios of 5:1, 2:1, 1:1, 1:2, and 1:5 in presence of recombinant IL-2 (Invitrogen Life Technologies) at 2000 U/mL and CD3/CD28 antibody coated beads (Miltenyi). MDSC and CD8^+ T cells were cultured at 1:1 ratio with entinostat at concentrations ranging from 0 μM to 0.25 μM. Cell-free supernatants were collected after 24-hour incubation at 37° C. and IFN-γ levels were assayed using Mouse IFN-γ DuoSet Elisa Development Kit (R&D Systems) according to the manufacturer's instruction.

The next data set has as its system CD8+ T cells. In words: In vitro survival assay (WST-1). The note with it: 24 hours, 0 to 50 μM. In kind it is cell-based, mouse.
Data set [5] has as its system G-MDSCs. In words: Flow cytometry of G-MDSCs in 4T1 tumor-bearing mice. In kind it is in vivo, BALB/c mice. The note with it: added to / in combination with PD-1/CTLA-4 inhibition. An excerpt: The following antibodies and reagents were used for flow cytometry: CD16/32 (BD Biosciences), CD3e Alexa Fluor 488 (14-C11; BD Biosciences), CD4 Brilliant Violet 421 (GK1.5, BD Biosciences), CD8a PerCP-Cy5.5 (53-6.7, BD Biosciences), CD25 PE (PC61, BD Biosciences), Foxp3 Alexa Fluor 647 (MF23, BD Biosciences), CD11b Alexa Fluor 700 (M1/70, BD Biosciences), I-A/I-E Alexa Fluor 488 (M5/114.15.2, BD Biosciences), Ly-6C PerCP-Cy5.5 (AL-21, BD Biosciences), CD11c PE (HL3, BD Biosciences), F4/80 APC (BM8, Biolegend), Ly-6G Pacific Blue (1A8, Biolegend), CD45 Pacific Orange (30-F11, Invitrogen Life Technologies), and Live/Dead Fixable Near IR Dead Cell Stain (Invitrogen Life Technologies). Flow cytometry was performed with LSR II (BD Biosciences) and the data was analyzed with FACS Diva software (BD Biosciences). To assess the level of circulating G-MDSC population, blood samples were collected from the mice 7 days after the initiation of the anti-PD-1/anti-CTLA-4 antibody treatments with or without 5-AZA/Entinostat. […] CD8^+ T cell level was assessed using previously established phenotypic criteria of CD45^+CD3^+CD8^+ and total CD45^+CD3^+ cells was used as a common denominator. Treg cell level was assessed using previously established phenotypic criteria of CD45^+CD3^+CD4^+CD25^+FoxP3^+ and total CD45^+CD3^+CD4^+ cells were used as a common denominator.
(In general: In flow cytometry, cells or beads pass a laser one at a time.)

For data set [6] the following is noted: mouse, in vivo.
Description: Body weight measurements. BALB/c mice bearing 4T1 tumors were treated with indicated therapeutic modalities. Their body weights were measured and recorded regularly after treatments. Means and standard deviations of data are shown.
Six to eight weeks old female BALB/C mice (Harlan Laboratories) were used for all animal experiments. 5×10^6 4 T1 tumor cells or 5×10^6 CT26 tumor cells were inoculated subcutaneously into the right flank of each mouse. Tumors were allowed to grow for 11 days prior to randomization and treatment. CT26 bearing mice were given 10 mg/kg of anti-PD-1 and/or anti-CTLA-4 antibodies intraperitoneally on day 11, 13, 15, 17, 20, 23 and 26 post-tumor implantations and 4T1 bearing mice were given 10 mg/kg anti-PD-1 and/or anti-CTLA-4 antibodies intraperitoneally on day 11, 13, 15, and 17 post-tumor implantations. 4T1 tumor bearing mice were given a single dose of 10 mg/kg anti-CD25 antibody or 10 mg/kg anti-Ly6G antibody intraperitoneally on day 12 post-tumor implantation for cell depletion studies. All antibodies were diluted to appropriate concentrations in 100 μl sterile PBS, pH 7.4 (Invitrogen Life Technologies). […] 4T1 bearing mice were injected intraperitoneally on day 12, 14, 16, and 18. […] Tumor volume was calculated as length×width×0.5.
The mark [7] stands for this setting: individual mouse, listed as ENT.

Several values for one entry are separate records, joined by “and”; a condition that tells them apart may be missing. Identical values can stand only once.

Turning to `Nc1ncn([C@@H]2O[C@H](CO)[C@@H](O)[C@H]2O)c(=O)n1` [AZA, 5-azacytidine], the cell viability result in the data set on 4T1 cells was “unresponsive”. For the same molecule, the cell viability result in the data set on G-MDSCs [1] was “no effect at comparable concentrations”. Besides, the “expression of MHC-I, B2M and TAP1 genes” value in [2] is recorded as “did not significantly increase the expression”. Also, the “expression of MHC-I, B2M and TAP1 genes” value in [3] is on record as “did not significantly increase the expression”. In addition, in the data set with 4T1 tumors, the “metastases (in words)” value was “unable to eradicate either primary tumor or metastasis” and the “primary tumors (in words)” value was “unable to eradicate either primary tumor or metastasis”. Besides, in the data set with 4T1 tumors (AVERAGE of group), the “Liver Mets” value was found to be 12, the “Lung Mets” value stood at 17, the “Primary Tumor Vol (mm^3)” value amounted to 2750 mm^3 and the “Spleen Mets” value was determined as 1. Further, in the data set on 4T1 tumors (individual mouse), the “Liver Mets” value was 0 (3×) and 43 and 16; the “Lung Mets” value was 20 (2×) and 16 and 17 and 14; the “Primary Tumor Vol (mm^3)” value is 2345 mm^3 and 2454 mm^3 and 2477 mm^3 and 4358 mm^3 and 2117 mm^3; the “Spleen Mets” value is 0 (3×) and 3 and 1.

`Nc1ccccc1NC(=O)c1ccc(CNC(=O)OCc2cccnc2)cc1` [entinostat]: the figures for the cell viability entry in the data set on 4T1 cells, in the data set on CD8+ T cells and in the data set on G-MDSCs [1] were “unresponsive”, “only modest effects” and “markedly reduced viability”, respectively. In data set [4], the “IFN-γ secretion inhibited by G-MDSCs” value is “reversed the inhibition in a dose-dependent manner”. Moreover, the “expression of MHC-I, B2M and TAP1 genes” value in data set [2] and in data set [3] was “did not significantly increase the expression” throughout. Further, the “metastases (in words)” value in the data set with 4T1 tumors is recorded as “unable to eradicate either primary tumor or metastasis”. Also, the “primary tumors (in words)” value in the data set on 4T1 tumors is given as “unable to eradicate either primary tumor or metastasis”. The “Liver Mets” value with 4T1 tumors (AVERAGE of group) was 4; in the data set on 4T1 tumors (setting [7]), 10 and 3 and 0 (2×) and 6. Moreover, the “Lung Mets” value was 17 in the data set on 4T1 tumors (AVERAGE of group); 25 and 20 (2×) and 0 and 22 with 4T1 tumors (setting [7]). For the same molecule, the “Primary Tumor Vol (mm^3)” value was 3483 mm^3 in the data set with 4T1 tumors (AVERAGE of group); 3005 mm^3 and 5038 mm^3 and 2275 mm^3 and 3063 mm^3 and 4032 mm^3 in the data set with 4T1 tumors (setting [7]). In addition, the “Spleen Mets” value with 4T1 tumors (AVERAGE of group) is 1; with 4T1 tumors (setting [7]), 1 and 0 (3×) and 3. Besides, the “number of circulating G-MDSCs” value with G-MDSCs [5] is recorded as “striking reduction in the number of circulating G-MDSCs”. Further, in data set [6], the “toxicity as indicated by body weight changes” value is “Temporary self-limiting toxicity”.
